In article PMC10914475 (iScience, 2024):

Molecular target: SfCht5 (S. frugiperda chitinase 5; rSfCht5) (Spodoptera frugiperda, UniProt A0A8K1Z7B3)
Test: residual endochitinase activity with synthetic substrate
Assay type: biochemical

SfCht5 (S. frugiperda chitinase 5; rSfCht5), sequence (A0A8K1Z7B3 21-555): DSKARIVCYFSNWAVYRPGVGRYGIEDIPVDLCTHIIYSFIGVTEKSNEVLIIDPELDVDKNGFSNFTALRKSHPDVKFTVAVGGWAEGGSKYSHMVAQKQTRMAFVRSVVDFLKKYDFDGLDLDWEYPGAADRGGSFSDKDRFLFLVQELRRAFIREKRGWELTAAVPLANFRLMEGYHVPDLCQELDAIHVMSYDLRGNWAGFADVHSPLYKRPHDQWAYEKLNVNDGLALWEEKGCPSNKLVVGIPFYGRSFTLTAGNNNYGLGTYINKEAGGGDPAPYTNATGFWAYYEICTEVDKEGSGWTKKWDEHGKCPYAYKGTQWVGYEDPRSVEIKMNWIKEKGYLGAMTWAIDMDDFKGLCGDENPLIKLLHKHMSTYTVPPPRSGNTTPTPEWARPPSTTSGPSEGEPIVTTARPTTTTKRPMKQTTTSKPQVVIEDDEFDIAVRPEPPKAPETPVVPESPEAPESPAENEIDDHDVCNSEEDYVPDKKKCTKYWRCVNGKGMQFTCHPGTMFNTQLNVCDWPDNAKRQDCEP

Compound: COc1ccc2cc3[n+](cc2c1OC)CCc1cc2c(cc1-3)OCO2 [berberine, 9,10-Dimethoxy-5,6-dihydro-[1,3] dioxolo[4,5-g]isoquinolino[3,2-a]isoquinolin-7-ium chloride dihydrate]
- IC50: ~158 µM
